Source: patent US20250074908A1, “SALT OF ROCK INHIBITOR, CRYSTAL FORM OF SALT, COMPOSITION, AND PHARMACEUTICAL USE” (WUHAN CREATERNA SCIENCE AND TECHNOLOGY CO., LTD., priority 2022, published 2025)
pIC50: −log10 of the molar value.

How the values were obtained:
[1] = molecular target: T1, ROCK2 kinase (Homo sapiens, UniProt O75116); assay: In-vitro evaluation of ROCK2 kinase activity (HTRF KinEASE-STK); assay type: biochemical
T1 construct: purchased Invitrogen PV3759
Description: ROCK2 activity screening: ROCK2 activity was detected using a 96-well (Cisbio) time-resolved fluorometric assay. The assay for ROCK2 was performed in the following assay buffer: 5 mM MgCl2 (Sigma), 1 mM DTT (Sigma), and 1× kinase buffer. The kinase buffer was used for dilution. 7.5 μL of ROCK2 kinase (Invitrogen, PV3759) was first added to a 96-well microplate to achieve a final concentration of 0.4 ng/μL, and then […] of compound I (DMSO content: 1% (volume fraction)) was added. The mixture was incubated at room temperature for 0.5 h. To start the reaction, the kinase buffer was used to mix ATP (Aladdin) and the substrate STK-substrate 2-biotin. 7.5 μL of the mixed solution was added to the microplate to achieve final concentrations of 6.739 μM and 1 μM. The resulting mixture was incubated at room temperature for another 2 h. 5 mL of detection buffer was mixed with STK antibody-Cryptate, and then an appropriate volume of the mixture was mixed with an equal volume of streptavidin-XL665. 10 μL of the resulting mixture was added to the microplate to stop the reaction. After further incubation for about 1 h, the microplate was read on a Molecular Devices Spectra Max i3x multifunctional microplate reader. […]

[2] = molecular target: T2, ROCK1 kinase (Homo sapiens, UniProt Q13464); assay: In-vitro evaluation of ROCK1 kinase selectivity (HTRF KinEASE-STK); assay type: biochemical
T2 construct: purchased Invitrogen
T2 sequence (Q13464 whole entry): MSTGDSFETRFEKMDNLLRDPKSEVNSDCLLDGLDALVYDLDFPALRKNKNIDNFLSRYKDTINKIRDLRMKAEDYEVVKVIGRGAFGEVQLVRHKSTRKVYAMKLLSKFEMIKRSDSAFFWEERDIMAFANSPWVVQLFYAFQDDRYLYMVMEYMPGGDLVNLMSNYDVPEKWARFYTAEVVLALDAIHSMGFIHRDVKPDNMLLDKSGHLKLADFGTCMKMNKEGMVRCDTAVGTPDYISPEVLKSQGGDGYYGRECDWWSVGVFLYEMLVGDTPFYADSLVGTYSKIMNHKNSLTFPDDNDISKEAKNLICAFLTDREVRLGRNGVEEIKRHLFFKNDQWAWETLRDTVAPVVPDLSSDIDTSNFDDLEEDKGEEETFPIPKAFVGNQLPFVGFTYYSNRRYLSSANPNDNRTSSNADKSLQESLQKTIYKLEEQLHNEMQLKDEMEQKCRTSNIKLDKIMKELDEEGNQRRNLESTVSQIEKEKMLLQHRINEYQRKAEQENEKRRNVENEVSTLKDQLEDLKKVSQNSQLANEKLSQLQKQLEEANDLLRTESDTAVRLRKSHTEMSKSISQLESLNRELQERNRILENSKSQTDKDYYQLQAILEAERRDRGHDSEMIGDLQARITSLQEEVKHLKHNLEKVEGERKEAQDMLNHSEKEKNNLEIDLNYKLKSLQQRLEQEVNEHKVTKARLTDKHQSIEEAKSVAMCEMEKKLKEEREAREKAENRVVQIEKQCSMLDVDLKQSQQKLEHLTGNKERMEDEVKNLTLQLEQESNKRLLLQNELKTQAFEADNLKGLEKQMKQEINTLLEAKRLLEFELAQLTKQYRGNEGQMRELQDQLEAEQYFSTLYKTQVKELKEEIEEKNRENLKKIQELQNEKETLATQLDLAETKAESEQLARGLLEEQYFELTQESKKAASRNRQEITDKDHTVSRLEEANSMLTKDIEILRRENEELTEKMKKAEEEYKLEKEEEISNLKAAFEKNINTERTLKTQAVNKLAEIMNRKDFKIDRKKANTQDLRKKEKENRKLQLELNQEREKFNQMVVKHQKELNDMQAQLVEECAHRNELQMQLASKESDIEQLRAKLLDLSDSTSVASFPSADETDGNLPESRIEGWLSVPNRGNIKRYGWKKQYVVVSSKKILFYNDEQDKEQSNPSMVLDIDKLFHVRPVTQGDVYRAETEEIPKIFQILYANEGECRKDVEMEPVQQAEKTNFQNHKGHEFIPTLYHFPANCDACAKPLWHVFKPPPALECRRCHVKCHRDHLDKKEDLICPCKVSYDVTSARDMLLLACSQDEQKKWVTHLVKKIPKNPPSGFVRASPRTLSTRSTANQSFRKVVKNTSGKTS
Description: ROCK1 activity was detected using a 96-well (Cisbio) time-resolved fluorometric assay. The assay for ROCK1 was performed in the following assay buffer: 5 mM MgCl2 (Sigma), 1 mM DTT (Sigma), and 1× kinase buffer. The kinase buffer was used for dilution. 7.5 μL of ROCK1 kinase (Invitrogen) was first added to a 96-well microplate to achieve a final concentration of 0.4 ng/μL, and then 0.25 μL of the compound (DMSO content: 1%) was added. The mixture was incubated at room temperature for 0.5 h. To start the reaction, the kinase buffer was also used to mix ATP (Aladdin) and the substrate STK-substrate 2-biotin. 7.5 μL of the mixed solution was added to the microplate to achieve final concentrations of 3.53 μM and 1 μM. The resulting mixture was incubated at room temperature for another 2 h. 5 mL of detection buffer was mixed with STK antibody-Cryptate, and then an appropriate volume of the mixture was mixed with an equal volume of streptavidin-XL665. 10 μL of the resulting mixture was added to stop the reaction. After further incubation for about 1 h, the microplate was read on a Molecular Devices SpectraMax i3x multifunctional microplate reader. The kinase buffer, the STK-substrate 2-biotin, the detection buffer, the STK antibody-Cryptate, and the streptavidin-XL665 were all from HTRF KinEASE-STK kit (Cisbio, 1000 tests, 61GSTXLA).

[3] = In-vitro cytotoxicity assay, CCK-8 method; assay type: cell-based; settings: human, HepG2 cells
Description: In-vitro cytotoxicity assay for compound I was performed in HepG2 cells using the CCK-8 method. HepG2 cells (Beina Bio) in the logarithmic growth phase were collected, the concentration of cell suspension was adjusted, and then the cells were plated on a 96-well cell culture plate at 50000 cells/well. The cells were then incubated in a cell incubator (5%, 37° C.) overnight. After 80%-90% cell confluence in the plate was achieved, medium change was performed, and then the test compound at each concentration gradient or vehicle (DMSO) was added. The resulting mixture was incubated in the cell incubator (5%, 37° C.) for 48 h. After the treatment was completed, the medium in the plate was discarded. The plate was washed twice with PBS, and a CCK-8 working solution (Beyotime) was added at 100 μL per well. The resulting mixture was then incubated at 37° C. for 1.5 h in the dark. The absorbance at OD450 nm was measured for each well on a microplate reader, and the CC50 value of each compound was analyzed and calculated.

[4] = Pharmacokinetic study in rats; assay type: in vivo, SD rats; settings: male, SD, rat, in vivo, po, 10 mg/kg
Description: Compound I, 2-hydroxyethanesulfonate of compound I, ethanesulfonate (crystal form I) of compound I, tartrate of compound I, and sulfate of compound I were each accurately weighed, and the required volume of vehicle was added. The mixture was stirred for 5 min, then sonicated below 25° C. until no large particles were visible to the naked eye, and further stirred for 30 min until a homogeneous suspension was obtained. The suspension was then used for administration.
Male SPF-grade SD rats (Beijing Vital River Laboratory Animal Technology Co., Ltd.) were given compound I, the 2-hydroxyethanesulfonate of compound I, the ethanesulfonate of compound I (crystal form I), the tartrate of compound I, and the sulfate of compound I by single intragastric administration after an acclimation period (with free access to water and food). Blood was collected from the orbital venous plexus of the rats at 0.167 h, 0.5 h, 1 h, 2 h, 3 h, 4 h, 6 h, 9 h, 12 h, and 24 h after administration. Each blood sample was centrifuged at 3500×g for 10 min at 4° C. The supernatant was then collected, and the concentration of compound I in the plasma was measured by LC-MS/MS (AB Sciex TRIPLE QUAD 3500). The data were analyzed using a non-compartmental model in WinNonlin (version 5.2.1 Pharsight, Mountain View, CA) to obtain PK parameters.

[5] = Chemical stability on storage up to 3 months (HPLC purity), Table 13-4; assay type: physicochemical; settings: for Purity (%), 230 nm, Month 1 / Purity (%), 230 nm, Month 3: sealed and protected from light
Description: B) The HPLC method used for the stability study was as follows:
The vials were sealed with tin foil and then separately placed under the conditions of 40° C. temperature/75% humidity or 25° C. temperature/60% humidity for about 3 months. The samples after being placed for 0 months, 2 weeks, 1 month and 3 months were taken and each dissolved in a diluent to prepare a solution at about 1.0 mg/mL, which was then tested for chemical stability by HPLC analysis using Shimadzu LC-20ADxr.

[6] = as above; assay type: physicochemical; settings: 40° C./75% humidity, sealed and protected from light

T1 sequence (O75116 whole entry): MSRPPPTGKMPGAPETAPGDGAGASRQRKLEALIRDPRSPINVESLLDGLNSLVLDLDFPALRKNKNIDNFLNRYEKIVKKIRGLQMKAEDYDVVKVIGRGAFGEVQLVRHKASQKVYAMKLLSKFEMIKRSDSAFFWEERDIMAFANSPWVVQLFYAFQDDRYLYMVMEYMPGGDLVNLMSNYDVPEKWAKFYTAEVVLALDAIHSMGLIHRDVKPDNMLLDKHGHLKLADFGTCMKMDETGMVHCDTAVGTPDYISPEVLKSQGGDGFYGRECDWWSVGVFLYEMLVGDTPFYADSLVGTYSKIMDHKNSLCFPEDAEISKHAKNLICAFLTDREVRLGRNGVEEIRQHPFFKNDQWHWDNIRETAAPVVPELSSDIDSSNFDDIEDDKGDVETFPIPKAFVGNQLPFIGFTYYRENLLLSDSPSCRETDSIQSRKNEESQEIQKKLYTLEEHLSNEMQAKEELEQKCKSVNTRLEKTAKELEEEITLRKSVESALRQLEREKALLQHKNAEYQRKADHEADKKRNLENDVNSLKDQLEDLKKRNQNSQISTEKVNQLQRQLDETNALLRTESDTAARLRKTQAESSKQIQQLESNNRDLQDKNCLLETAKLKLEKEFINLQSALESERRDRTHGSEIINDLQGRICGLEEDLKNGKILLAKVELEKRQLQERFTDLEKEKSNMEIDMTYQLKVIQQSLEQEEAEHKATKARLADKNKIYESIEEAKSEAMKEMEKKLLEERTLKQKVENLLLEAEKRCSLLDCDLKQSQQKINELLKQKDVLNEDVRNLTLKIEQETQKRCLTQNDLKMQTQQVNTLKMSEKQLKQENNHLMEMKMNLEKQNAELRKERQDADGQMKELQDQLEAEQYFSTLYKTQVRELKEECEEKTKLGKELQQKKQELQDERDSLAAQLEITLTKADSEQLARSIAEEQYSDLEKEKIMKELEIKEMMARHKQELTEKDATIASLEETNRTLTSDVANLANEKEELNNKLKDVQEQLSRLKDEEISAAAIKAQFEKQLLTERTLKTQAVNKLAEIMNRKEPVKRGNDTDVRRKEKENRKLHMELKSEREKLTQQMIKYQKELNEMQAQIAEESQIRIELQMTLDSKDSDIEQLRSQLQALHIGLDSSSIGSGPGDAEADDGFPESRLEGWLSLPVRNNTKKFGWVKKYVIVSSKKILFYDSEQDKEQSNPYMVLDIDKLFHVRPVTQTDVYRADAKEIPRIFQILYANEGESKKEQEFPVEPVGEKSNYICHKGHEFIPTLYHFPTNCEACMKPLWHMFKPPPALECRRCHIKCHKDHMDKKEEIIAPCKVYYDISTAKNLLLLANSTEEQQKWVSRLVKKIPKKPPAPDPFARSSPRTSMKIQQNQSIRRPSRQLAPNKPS

| SMILES | pIC50 [1] | pIC50 [2] | CC50 at 48 h [3] | AUC(0-t) [4] | Cmax [4] | stability in chemical properties ([5]; 25° C./60% humidity and 40° C./75% humidity (sealed and protected from light)) | Purity (%), 230 nm, Month 1 ([5]; 25° C./60% humidity) | Purity (%), 230 nm, Month 3 ([5]; 25° C./60% humidity) | Purity (%), 230 nm, Month 1 ([5]; 40° C./75% humidity) | Purity (%), 230 nm, Month 3 ([5]; 40° C./75% humidity) | Purity (%), 230 nm, Day 0 ([5]; Day 0) | Purity (%), 230 nm, Month 2 [6] |
| --- | --- | --- | --- | --- | --- | --- | --- | --- | --- | --- | --- | --- |
| Cn1c(C(=O)N2CC(F)(F)C2)cc2c1CN(c1ncc(F)c(Nc3ccc(-c4cn[nH]c4)cc3)n1)CC2 [Compound I, (6-(4-((4-(1H-pyrazol-4-yl)phenyl)amino)-5-fluoropyrimidin-2-yl)-1-methyl-4,5,6,7-tetrahydro-1H-pyrrolo[2,3-c]pyridin-2-yl)(3,3-difluoroazetidin-1-yl)methanone] | 7.44 | < 5.35 | > 100 µM | 2040 ng·h/mL | 251 ng/mL | – | – | – | – | – | – | – |
| Cn1c(C(=O)N2CC(F)(F)C2)cc2c1CN(c1ncc(F)c(Nc3ccc(-c4cn[nH]c4)cc3)n1)CC2.O=C(O)C(O)C(O)C(=O)O [Crystal form I of tartrate] | – | – | – | – | – | substantially stable | 99.00% | 99.02% | 98.95% | 99.04% | 98.98% | 99.18% |
